EC50, AC50 and IC50 data for eight molecules are collected here from ChEMBL document CHEMBL1201862, “PubChem BioAssay data set” (2004).

The source made the active and inactive calls.

As usually defined, the EC50 is the concentration that produces a half-maximal response. Usually AC50 stands for the concentration giving half of the maximal activity seen. As a reminder, the IC50 is the point on the concentration scale where inhibition reaches its midpoint.

Assay [1] can be described thus: inhibitors of SNCA 5'UTR-driven translation, confirmation, luminescence, H4 neuroglioblastoma cells, dose confirmation (AID 2454).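 Further: H4 neuroglioblastoma cells carrying an alpha-synuclein 5'UTR luciferase reporter; potency for inhibition of the luciferase signal.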 The format is functional, cell-based.
Assay [2] in a line: luciferase reporter signal reduction – luminescence, H4-C neuroglioblastoma cells, dose response (AID 2458).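 Further: H4 neuroglioblastoma cells stably carrying a luciferase reporter gene fusion.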 The format is functional, cell-based. (In general: Reporter assays use an easily measured gene product as a stand-in for the process of interest.)
Assay [3] in a line: LGR2 antagonists, dose response, cell-based, HEK293, CRE-luciferase reporter, cherry pick, set 2 (AID 743343).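 Further: transfected cells were stimulated with diluted bursicon conditioned medium after compound addition.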 The format is functional.
The nature of assay [4]: HepG2 cell cytotoxicity, dose response, cytotoxicity control, plate reader, cherry-pick, antagonist series (AID 743416). The format is functional, cell-based.
The nature of assay [5]: A549 cell cytotoxicity, dose response, cytotoxicity control, plate reader, cherry-pick, antagonist series (AID 743412). The format is functional, cell-based.
The nature of assay [6]: inhibitors of firefly luciferase expression or activity, dose response, H4 neuroglioma cells, luminescence (AID 1990). It counts as functional, cell-based.
Assay [7] can be described thus: MC4R antagonists, dose response, counter-screen for LGR2 antagonist project, cell-based, plate reader, cherry pick (AID 743444).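 Further: transfected HEK 293 cells stimulated with alpha-MSH peptide; potency of inhibitors of the alpha-MSH evoked signal.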 The format is functional. Background: The purpose of a counterscreen is to sort out artefacts and off-target activity.
The nature of assay [8]: cells. It counts as functional, cell-based.
The nature of assay [9]: inhibitors of SNCA 5'UTR-driven reporter translation, confirmation, H4 neuroglioma cells, luminescence (AID 1988). The format is functional, cell-based.
The next assay deals with INS1. Briefly: beta cell apoptosis inhibitors, cytokine rescue, dose response, luminescence, retest (AID 449756).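 Further: cell death triggered by IL-1 beta plus TNF-alpha plus IFN-gamma mixture; protective hits raise ATP signal compared with cytokine alone wells.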 The conditions noted are these: Rattus norvegicus. The format is functional, cell-based.
A short description of assay [10]: Luminescence Cell-Based Dose Response HTS to Identify Inhibitors of 5'UTR Stem-Loop Driven Prion Protein mRNA Translation in H4 Neuroglioblastoma Cells. [Related pubchem assays: 1827 (Project Summary), 1813 (Primary HTS)]. It counts as functional.
Assay [11] is described as follows: cells.
Assay [12] is described as follows: NIH-3T3 fibroblast cytotoxicity, dose response, cytotoxicity control, cell-based, fluorescence, Alamar Blue, secondary assay (AID 2327).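 Further: NIH-3T3 mouse fibroblasts cultured with fluconazole at 8 µg/mL.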 It counts as functional.
Assay [13] is described as follows: cytotoxicity toward NIH3T3 fibroblasts, dose response, counter-screen, cell-based, ATP luminescence, mouse fibroblasts (AID 2010).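 Further: cells exposed to compound for about 90 hours before reading.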 The format is functional.
The nature of assay [14]: inhibitors of intracellular T. cruzi replication, confirmation, NIH3T3 host cells, beta-gal luminescence (AID 2044).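 Further: intracellular parasites grown in NIH/3T3 mouse fibroblasts as host cells; luminescent beta-galactosidase reporter signal from transgenic T. cruzi replicating inside host cells; inhibitors lower the luminescence signal.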 It counts as functional, cell-based.
Assay [15] in a line: C. albicans growth with fluconazole, confirmation, fluorescence, retest (AID 2467). It counts as functional, cell-based.
The target in assay [16] is T1, Short transient receptor potential channel 4 (Mus musculus, UniProt Q9QUQ5).
T1 sequence (Q9QUQ5 whole entry): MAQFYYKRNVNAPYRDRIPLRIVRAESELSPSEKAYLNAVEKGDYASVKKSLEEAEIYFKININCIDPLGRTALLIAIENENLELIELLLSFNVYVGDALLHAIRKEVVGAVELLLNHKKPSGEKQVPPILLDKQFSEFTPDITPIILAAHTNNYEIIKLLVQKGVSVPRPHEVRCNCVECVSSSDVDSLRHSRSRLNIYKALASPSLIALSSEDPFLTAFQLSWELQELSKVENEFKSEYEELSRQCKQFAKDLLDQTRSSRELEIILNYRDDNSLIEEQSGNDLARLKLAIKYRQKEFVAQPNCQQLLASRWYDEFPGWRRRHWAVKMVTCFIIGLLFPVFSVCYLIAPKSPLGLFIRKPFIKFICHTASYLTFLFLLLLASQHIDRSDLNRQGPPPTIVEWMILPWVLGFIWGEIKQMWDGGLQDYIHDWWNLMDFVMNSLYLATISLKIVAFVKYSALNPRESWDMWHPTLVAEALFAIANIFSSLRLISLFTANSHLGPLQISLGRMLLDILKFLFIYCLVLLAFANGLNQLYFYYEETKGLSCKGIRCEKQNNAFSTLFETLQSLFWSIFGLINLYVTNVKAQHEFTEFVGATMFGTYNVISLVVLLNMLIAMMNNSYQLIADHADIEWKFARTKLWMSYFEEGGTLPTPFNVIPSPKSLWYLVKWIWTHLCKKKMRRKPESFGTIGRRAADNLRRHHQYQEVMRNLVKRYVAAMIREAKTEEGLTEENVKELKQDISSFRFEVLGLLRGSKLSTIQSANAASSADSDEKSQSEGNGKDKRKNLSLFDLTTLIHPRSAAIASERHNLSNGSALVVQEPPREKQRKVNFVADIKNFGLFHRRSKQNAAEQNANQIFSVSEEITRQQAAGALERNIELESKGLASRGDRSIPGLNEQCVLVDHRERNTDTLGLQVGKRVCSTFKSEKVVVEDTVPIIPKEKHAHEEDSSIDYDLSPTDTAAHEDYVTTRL
Briefly: mouse TRPC4 channel inhibitors, dose response, cell-based, HEK293 TRPC4/mu-opioid, Fluo-4 calcium (AID 434942).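 Further: potency of inhibitors blocking the TRPC4 calcium response.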 It counts as functional.

The next assay has as its target Large T antigen (Simian virus 40, UniProt P03070). The format is functional, Betapolyomavirus macacae.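 Further: Confirmatory-stage PubChem screen for compounds that inhibit SV40 T antigen.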
Another assay has as its target Ion channel NompC (Danio rerio, UniProt Q7T1G6). Briefly: Fluorescence counterscreen assay for TRPML3 agonists: dose response cell-based high-throughput screening assay to identify agonists of the transient receptor potential channel N1 (TRPN1). [Related pubchem assays: 1526, 1424, 1448 ]. It counts as functional.
A further assay addresses T2, Mucolipin-3 (Homo sapiens, UniProt Q8TDD5).
T2 sequence (Q8TDD5 whole entry): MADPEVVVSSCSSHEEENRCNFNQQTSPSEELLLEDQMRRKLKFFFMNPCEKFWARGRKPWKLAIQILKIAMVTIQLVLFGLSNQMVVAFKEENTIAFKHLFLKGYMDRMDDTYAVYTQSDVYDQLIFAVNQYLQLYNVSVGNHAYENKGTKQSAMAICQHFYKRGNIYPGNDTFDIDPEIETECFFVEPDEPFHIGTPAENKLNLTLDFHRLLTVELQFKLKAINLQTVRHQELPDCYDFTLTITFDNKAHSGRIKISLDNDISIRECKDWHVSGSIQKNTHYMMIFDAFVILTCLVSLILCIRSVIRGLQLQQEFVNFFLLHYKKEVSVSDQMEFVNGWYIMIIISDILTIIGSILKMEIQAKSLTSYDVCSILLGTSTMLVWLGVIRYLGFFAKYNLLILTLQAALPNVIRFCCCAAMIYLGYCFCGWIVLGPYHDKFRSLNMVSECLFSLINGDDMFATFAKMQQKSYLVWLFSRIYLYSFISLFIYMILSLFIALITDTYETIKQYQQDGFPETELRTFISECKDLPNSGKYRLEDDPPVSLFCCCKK
Briefly: Dose response cell-based high-throughput screening assay for agonists of the transient receptor potential channel ML3 (TRPML3). [Related pubchem assays: 1526, 1424, 1448 ]. The format is functional.

In another assay the target is T3, Aminopeptidase N (Plasmodium falciparum FcB1/Columbia, UniProt O96935).
T3 sequence (O96935 whole entry): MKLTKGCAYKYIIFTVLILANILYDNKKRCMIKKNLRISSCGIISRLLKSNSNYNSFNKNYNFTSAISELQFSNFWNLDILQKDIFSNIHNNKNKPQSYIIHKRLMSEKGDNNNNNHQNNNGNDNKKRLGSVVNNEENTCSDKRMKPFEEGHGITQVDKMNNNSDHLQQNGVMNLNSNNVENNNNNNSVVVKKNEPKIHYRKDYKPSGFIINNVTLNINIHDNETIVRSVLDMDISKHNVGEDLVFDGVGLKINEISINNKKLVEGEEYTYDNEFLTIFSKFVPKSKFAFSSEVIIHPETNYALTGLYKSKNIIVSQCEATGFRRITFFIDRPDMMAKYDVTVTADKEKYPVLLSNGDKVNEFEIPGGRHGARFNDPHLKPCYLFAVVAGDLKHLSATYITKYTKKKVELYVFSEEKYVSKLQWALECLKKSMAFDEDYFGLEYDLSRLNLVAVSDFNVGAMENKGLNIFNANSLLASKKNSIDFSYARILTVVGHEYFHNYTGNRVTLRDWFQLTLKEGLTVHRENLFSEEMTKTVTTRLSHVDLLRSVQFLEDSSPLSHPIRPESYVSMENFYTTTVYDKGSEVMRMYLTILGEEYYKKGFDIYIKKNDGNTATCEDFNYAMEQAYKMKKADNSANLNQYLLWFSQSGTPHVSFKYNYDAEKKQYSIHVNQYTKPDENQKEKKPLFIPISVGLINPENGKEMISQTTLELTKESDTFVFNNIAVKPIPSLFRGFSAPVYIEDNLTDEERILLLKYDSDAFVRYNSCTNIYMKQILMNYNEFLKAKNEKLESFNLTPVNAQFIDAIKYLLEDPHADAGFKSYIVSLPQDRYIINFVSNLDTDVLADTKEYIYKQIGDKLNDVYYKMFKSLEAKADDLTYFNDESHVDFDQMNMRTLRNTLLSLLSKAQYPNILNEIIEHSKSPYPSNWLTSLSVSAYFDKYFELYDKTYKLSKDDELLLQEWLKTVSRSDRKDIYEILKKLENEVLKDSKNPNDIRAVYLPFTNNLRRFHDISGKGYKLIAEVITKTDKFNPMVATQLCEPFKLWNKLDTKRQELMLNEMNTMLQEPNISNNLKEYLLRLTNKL
Briefly: P. falciparum M1AAP inhibitors, biochemical, fluorogenic H-Leu-NHMec substrate, 1536-well (AID 1445). Further details: species or system Plasmodium falciparum 3D7, 3D7.

The test system of assay [17] is HEK293. Briefly: NOD2 signaling inhibitors in MDP-stimulated cells, cell-based, uHTS, luminescence (AID 2001). It counts as functional. The conditions noted are these: Homo sapiens.
For assay [18], the system named is HEK293. Briefly: NOD1 signaling inhibitors, primary screen, cell-based, luminescence, uHTS (AID 1578). It counts as functional. The conditions noted are these: Homo sapiens.
Assay [19] deals with HEK293. Briefly: cells. The format is functional, cell-based. The conditions noted are these: Homo sapiens.
Assay [20] deals with HEK293. Briefly: cells. The conditions noted are these: Homo sapiens. It counts as functional, cell-based. This is another data set of the same source.
Assay [21] has as its system HEK293. Briefly: cells. The format is functional, cell-based. Particulars: Homo sapiens. The source holds these as a separate data set.
Assay [22] addresses Nucleotide-binding oligomerization domain-containing protein 2 (Homo sapiens, UniProt Q9HC29). Briefly: NOD2 signaling inhibitors, cell-based, luminescence, uHTS, HEK293 (AID 1566). It counts as functional.
The next assay addresses Estrogen receptor beta (Homo sapiens, UniProt Q92731). Briefly: ERβ–SRC-3 coactivator interaction inhibitors, confirmation, orthogonal assay, biochemical, ELISA, streptavidin-HRP readout (AID 1060). In general terms: An ELISA detects its analyte on a solid surface through an enzyme-linked reagent.
Another assay concerns the target T4, Protein Tat (Human immunodeficiency virus type 1 group M subtype B (isolate HXB2)(HIV-1), UniProt P04608).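 Further: tat binding to TAR RNA read out by fluorescence polarization.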
T4 sequence (P04608 whole entry): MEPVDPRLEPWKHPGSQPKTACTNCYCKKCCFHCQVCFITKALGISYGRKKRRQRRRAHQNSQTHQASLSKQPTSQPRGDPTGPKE
It counts as functional.

Chain of Ion channel NompC (Q7T1G6 whole entry): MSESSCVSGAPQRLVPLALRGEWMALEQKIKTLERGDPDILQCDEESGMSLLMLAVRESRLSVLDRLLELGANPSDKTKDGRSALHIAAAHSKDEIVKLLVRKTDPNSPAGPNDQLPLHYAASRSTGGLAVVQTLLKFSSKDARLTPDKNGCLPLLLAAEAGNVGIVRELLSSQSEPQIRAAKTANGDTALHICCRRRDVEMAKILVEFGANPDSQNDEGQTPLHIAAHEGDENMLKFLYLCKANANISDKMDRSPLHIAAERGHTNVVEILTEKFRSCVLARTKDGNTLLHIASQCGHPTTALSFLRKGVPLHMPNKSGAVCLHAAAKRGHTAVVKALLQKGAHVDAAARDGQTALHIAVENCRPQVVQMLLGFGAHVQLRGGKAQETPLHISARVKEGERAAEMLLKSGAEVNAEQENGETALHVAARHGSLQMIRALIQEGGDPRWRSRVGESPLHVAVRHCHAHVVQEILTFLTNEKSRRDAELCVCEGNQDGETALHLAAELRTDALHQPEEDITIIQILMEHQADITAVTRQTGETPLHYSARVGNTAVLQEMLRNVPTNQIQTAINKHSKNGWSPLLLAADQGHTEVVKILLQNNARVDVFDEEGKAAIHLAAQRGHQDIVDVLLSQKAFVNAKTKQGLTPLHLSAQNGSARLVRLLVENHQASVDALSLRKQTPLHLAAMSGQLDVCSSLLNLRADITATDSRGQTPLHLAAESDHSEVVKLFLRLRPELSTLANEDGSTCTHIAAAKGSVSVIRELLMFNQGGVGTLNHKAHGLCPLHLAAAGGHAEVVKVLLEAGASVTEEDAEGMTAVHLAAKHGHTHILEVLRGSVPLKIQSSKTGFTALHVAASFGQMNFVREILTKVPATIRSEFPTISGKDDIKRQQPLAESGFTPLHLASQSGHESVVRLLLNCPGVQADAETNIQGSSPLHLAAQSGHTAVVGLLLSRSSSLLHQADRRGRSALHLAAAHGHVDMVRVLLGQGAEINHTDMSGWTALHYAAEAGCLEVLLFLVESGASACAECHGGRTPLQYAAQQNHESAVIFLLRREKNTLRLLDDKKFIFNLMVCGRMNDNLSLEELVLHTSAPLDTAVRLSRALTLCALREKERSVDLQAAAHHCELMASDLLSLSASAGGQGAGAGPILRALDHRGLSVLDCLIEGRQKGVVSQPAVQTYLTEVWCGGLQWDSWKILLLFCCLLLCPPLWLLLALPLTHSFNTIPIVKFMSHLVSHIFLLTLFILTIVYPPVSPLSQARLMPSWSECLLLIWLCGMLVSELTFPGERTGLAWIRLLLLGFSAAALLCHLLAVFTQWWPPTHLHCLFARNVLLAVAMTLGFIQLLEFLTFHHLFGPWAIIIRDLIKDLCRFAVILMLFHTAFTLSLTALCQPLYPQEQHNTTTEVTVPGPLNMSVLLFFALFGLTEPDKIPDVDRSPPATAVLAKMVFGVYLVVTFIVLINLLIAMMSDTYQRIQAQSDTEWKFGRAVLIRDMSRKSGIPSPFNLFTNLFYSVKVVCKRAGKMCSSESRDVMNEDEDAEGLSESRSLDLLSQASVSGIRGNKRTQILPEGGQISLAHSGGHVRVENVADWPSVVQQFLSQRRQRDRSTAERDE
Chain of Estrogen receptor beta (Q92731 whole entry): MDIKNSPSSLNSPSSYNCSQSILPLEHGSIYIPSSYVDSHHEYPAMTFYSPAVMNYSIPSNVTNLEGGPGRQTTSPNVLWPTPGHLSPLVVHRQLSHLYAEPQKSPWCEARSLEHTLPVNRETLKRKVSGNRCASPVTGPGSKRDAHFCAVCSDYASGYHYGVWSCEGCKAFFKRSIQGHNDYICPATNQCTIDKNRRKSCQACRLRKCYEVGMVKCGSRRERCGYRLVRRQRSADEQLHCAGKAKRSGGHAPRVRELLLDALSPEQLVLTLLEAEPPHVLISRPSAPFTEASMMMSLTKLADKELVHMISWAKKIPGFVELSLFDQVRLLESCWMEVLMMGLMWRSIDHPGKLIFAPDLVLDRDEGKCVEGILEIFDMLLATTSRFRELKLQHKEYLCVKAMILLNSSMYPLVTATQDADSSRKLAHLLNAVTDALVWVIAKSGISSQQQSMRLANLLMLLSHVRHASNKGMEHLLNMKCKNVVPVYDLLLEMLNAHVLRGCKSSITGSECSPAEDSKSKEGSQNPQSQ
Chain of Nucleotide-binding oligomerization domain-containing protein 2 (Q9HC29 whole entry, the tested form may be a part): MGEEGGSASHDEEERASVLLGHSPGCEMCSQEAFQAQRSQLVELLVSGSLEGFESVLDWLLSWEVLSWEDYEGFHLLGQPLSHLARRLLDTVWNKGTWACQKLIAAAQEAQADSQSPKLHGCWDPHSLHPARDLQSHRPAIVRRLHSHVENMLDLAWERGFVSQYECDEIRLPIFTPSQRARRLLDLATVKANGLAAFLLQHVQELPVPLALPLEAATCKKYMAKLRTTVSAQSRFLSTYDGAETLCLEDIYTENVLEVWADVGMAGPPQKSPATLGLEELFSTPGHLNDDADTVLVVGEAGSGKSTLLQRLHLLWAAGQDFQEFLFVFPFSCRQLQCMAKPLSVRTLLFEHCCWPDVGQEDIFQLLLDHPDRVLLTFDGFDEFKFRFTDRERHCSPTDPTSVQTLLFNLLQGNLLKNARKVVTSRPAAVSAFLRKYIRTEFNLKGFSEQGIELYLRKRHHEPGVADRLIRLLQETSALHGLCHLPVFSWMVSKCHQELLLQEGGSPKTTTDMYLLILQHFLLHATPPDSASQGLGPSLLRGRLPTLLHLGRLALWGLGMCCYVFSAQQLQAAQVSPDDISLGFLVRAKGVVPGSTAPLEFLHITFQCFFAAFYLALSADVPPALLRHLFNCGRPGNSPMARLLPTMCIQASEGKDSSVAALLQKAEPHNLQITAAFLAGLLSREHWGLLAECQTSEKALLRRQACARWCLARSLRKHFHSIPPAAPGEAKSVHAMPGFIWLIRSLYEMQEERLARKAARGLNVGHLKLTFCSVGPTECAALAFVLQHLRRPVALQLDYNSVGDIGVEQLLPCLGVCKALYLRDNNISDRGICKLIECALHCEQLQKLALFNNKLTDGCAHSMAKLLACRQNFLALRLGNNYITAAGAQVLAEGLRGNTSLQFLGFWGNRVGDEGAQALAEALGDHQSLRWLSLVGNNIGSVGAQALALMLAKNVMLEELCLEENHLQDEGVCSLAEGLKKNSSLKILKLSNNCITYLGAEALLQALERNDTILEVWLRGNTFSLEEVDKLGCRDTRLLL
Chain of Large T antigen (P03070 whole entry): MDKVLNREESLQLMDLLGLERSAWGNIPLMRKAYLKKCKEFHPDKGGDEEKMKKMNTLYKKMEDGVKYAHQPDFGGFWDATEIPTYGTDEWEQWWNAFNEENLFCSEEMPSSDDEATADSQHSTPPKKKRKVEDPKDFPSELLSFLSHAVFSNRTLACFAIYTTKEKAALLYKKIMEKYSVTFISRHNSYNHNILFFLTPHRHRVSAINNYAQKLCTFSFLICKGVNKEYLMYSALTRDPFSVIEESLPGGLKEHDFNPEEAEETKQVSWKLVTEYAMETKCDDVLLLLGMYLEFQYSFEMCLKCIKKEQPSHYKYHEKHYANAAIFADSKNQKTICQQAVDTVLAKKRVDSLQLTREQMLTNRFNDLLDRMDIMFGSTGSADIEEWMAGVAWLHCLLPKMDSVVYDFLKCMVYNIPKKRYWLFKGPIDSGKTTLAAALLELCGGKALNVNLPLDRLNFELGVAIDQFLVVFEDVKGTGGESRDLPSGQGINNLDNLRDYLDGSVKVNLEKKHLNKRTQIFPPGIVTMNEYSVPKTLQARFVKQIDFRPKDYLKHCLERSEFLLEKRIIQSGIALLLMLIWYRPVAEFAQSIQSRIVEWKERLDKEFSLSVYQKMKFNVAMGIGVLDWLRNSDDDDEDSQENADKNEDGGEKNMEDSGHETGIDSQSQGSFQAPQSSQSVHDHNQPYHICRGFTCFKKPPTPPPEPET

Take `O=C(CN1C(=O)c2ccccc2S1(=O)=O)c1ccc(F)cc1`: the 50% effective concentration (EC50) was 2.32 µM (active) in [1]; 1.12 µM (active) in assay [2]; 11.4 µM (active) in assay [6]; 1.87 µM (active) in the assay “cells [8]”; 5.89 µM (active) in assay [9]; < 0.1 µM (active) in assay [10]. The AC50 in assay [3] is 2.75 µM (active); in assay [4], > 52 µM (inactive); in [5] it was > 52 µM (inactive); in assay [7], 3.02 µM (active); with INS1, > 260 µM (inactive).

For `CCCC[n+]1c2ccccc2cc2ccccc21`, the EC50 in the assay “cells [11]” was 0.041 µM (active); in assay [12], > 150 µM (inactive); in [13] it was > 60 µM (not active); in [14], < 0.1 µM (active); in [15], 0.604 µM (active); in assay [16], 4.22 µM (active). Further, the IC50 at Large T antigen was 42.4 µM (active).

For `O=S(=O)(c1ccccc1)C1(S(=O)(=O)c2ccccc2)CCCC1`, the EC50 at Ion channel NompC was > 29.9 µM (not active); on Mucolipin-3 it was 5.62 µM (active).

Regarding `O=C(NN1C(=O)c2ccccc2NC1c1ccco1)c1ccccc1` (centres undefined), on Aminopeptidase N, the IC50 is 61.3 µM (active).

With `O=C(C1=C(O)C(=O)N(c2nccs2)C1c1ccccc1)c1ccc2c(c1)OCCO2` (centres undefined), the IC50 in the assay with HEK293 [17] is 18.6 µM (inactive); in the assay with HEK293 [19] it was > 20 µM (inactive); in the assay on HEK293 [20], > 20 µM (inactive); in the assay on HEK293 [21], > 20 µM (inactive). Moreover, the EC50 in assay [1] was 1.93 µM (active); in assay [2], 4.2 µM (active); with HEK293 [18], 11.5 µM (active); in [6], 0.146 µM (active); in “cells [8]”, 1.11 µM (active); in [9], 7.17 µM (active). Besides, the EC50 was 5.45 µM (active) in [22] and < 0.1 µM (active) in assay [10].

For `CN1CCN(CC(=O)Nc2sc3c(c2C#N)CCCC3)CC1`, the IC50 against Estrogen receptor beta is listed as 15 µM (not active).

On to `COc1ccc(N(C)S(=O)(=O)c2ccc(C)cc2)c([N+](=O)[O-])c1`, for which the EC50 at Ion channel NompC was > 29.9 µM (not active); on Mucolipin-3, 3.13 µM (active).

On to `Cc1cc(C(C)c2ccccc2)c(O)c(CN2CCOCC2)c1C` (centres undefined), for which the values for the EC50 at Ion channel NompC and at Mucolipin-3 were > 29.9 µM (not active) and 5.07 µM (active), respectively. On Protein Tat, the IC50 is > 100 µM (active).
